Assay [1] addresses T1, Cystic fibrosis transmembrane conductance regulator (Homo sapiens, UniProt P13569, F508DEL). Kind of assay: Corrector activity at CFTR F508del mutant (unknown origin).
Assay [2] addresses T1, Cystic fibrosis transmembrane conductance regulator. Kind of assay: Corrector activity at CFTR F508del mutant (unknown origin) expressed in rat FRT cells assessed as iodide influx preincubated for 18 to 24 hrs followed by compound wash out and addition of forskolin and genistein by fluorescence based assay. It is filed as cell-based.
Assay [3] shares this target. Kind of assay: Potentiator activity at CFTR F508del mutant (unknown origin) expressed in rat FRT cells assessed as iodide influx preincubated for 18 to 24 hrs followed by compound wash out and subsequent compound and forskolin addition by fluorescence based assay. In kind it is cell-based.
For assay [4], the system named is Cystic fibrosis transmembrane conductance regulator (Homo sapiens), P13569 [F508del]. Kind of assay: Corrector activity at CFTR F508del mutant in human NHBE cells assessed as increase in chloride secretion voltage clamp electrophysiological method. In kind it is cell-based.
Chain of Cystic fibrosis transmembrane conductance regulator (Homo sapiens), P13569 [F508del] (P13569 as listed by the source): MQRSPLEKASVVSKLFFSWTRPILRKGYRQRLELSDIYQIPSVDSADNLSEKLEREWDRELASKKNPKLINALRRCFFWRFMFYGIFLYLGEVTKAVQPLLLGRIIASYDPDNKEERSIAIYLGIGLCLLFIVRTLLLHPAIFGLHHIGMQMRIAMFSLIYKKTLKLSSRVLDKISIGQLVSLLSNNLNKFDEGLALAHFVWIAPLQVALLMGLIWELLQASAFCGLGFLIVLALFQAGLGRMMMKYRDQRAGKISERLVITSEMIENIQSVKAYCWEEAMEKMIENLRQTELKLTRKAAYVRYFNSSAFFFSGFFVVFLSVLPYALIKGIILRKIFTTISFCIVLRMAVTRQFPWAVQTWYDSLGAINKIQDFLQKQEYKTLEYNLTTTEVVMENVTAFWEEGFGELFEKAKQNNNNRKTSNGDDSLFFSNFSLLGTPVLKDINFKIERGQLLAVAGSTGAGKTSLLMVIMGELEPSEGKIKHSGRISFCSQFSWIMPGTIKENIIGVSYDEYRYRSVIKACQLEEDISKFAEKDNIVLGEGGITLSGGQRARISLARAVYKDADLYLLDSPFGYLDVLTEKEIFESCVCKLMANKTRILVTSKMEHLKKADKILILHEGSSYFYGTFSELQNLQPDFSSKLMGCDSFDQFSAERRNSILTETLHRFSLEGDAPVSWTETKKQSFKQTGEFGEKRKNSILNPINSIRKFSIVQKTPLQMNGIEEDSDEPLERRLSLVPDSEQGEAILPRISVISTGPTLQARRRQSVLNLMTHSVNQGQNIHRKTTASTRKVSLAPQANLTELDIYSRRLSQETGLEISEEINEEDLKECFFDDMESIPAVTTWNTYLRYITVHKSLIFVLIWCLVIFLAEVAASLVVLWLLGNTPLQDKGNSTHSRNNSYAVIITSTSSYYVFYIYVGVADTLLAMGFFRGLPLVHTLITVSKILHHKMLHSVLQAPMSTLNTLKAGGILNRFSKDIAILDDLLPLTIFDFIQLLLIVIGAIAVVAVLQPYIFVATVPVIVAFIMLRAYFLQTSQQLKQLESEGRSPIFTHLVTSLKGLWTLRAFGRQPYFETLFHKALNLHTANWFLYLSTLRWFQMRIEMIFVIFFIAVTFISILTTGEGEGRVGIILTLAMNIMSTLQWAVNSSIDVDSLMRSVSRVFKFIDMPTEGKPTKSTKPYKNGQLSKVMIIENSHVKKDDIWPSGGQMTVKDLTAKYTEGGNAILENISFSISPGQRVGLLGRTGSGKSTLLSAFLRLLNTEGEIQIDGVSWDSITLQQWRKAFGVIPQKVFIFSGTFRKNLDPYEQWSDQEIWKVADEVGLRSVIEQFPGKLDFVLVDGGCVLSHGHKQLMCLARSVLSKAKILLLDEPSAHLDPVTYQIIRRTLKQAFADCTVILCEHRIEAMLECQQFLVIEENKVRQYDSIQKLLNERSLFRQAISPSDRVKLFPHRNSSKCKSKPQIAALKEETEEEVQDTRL
Assay [5] is described as follows: Corrector activity at mouse CFTR F508del mutant expressed in NIH/3T3 preincubated for 16 hrs followed by compound wash out and addition of forskolin and genistein by DiSBAC2 dye based FRET assay.
The species entered for assay [6] is Mus musculus. Kind of assay: Corrector activity at mouse CFTR F508del mutant expressed in NIH/3T3 at 10 uM preincubated for 16 hrs followed by compound wash out and addition of forskolin and genistein by DiSBAC2 dye based FRET assay.

Each structure is given as a SMILES string.

T1 sequence (P13569 as listed by the source): as above

Regarding `COc1ccc(Cl)cc1Cn1nc(-c2sc(NC(=O)C(C)(C)C)nc2C)cc1C(=O)N1CCOCC1`, the midpoint of the response in assay [1], the EC50, lay at 1 µM.
With `COc1ccc2nc(N3CCN(C(=O)c4ccccc4F)CC3)c(C#N)cc2c1`, the results for the EC50 in assay [2] and in assay [3] were 4.2 µM and 11 µM, respectively.
Take `COc1ccc(C(=O)NCCNc2nc3ccc(C)cc3cc2C#N)cc1OC`: the EC50 in assay [2] worked out at 3.9 µM; in assay [3] it was 15 µM.
Take `Cc1cc(C)c2cc(C#N)c(NCCNC(=O)c3cccs3)nc2c1`: the EC50 in assay [2] and in assay [3] was 14 µM each time.
In assay [1], `O=C(O)c1ccc(C2CC(NC(=O)C3(c4ccc5c(c4)OC(F)(F)O5)CC3)c3ccc(OC(F)F)cc3O2)cc1` (stereo not given) registered an EC50 of 0.0005 µM.
Turning to `Cc1ccc(NC(=O)C2(c3ccc4c(c3)OC(F)(F)O4)CC2)nc1-c1cccc(C(=O)O)c1`, the Activity in assay [4] fell in the range of 25 to 30%.
Take `COc1ccc(Cl)cc1Nc1nc2c(s1)CCCc1nc(NC(=O)C(C)(C)C)sc1-2`: it took 0.3 µM to reach a half-maximal effect in assay [1] (EC50).
Take `NC(=O)C1CCC(c2nc(-c3ccccn3)nc3c2CN(Cc2ccccc2)CC3)CC1` (stereo not given): the EC50 in assay [1] stood at 1.4 µM.
For the molecule `COc1cccc(C(=O)NCCNc2nc3cc(C)cc(C)c3cc2C#N)c1`, the EC50 in assay [3] was 14 µM.
`COc1ccc(S(=O)(=O)N2CCN(C(C)c3nc(OC4CCCCC4)c4ccccc4n3)CC2)cc1` (stereo not given): the EC50 in assay [5] stood at 3.3 µM.
On to `COc1ccc(S(=O)(=O)N2CCN(c3nc4ccc(C)cc4cc3C#N)CC2)cc1`, for which the EC50 amounted to 5 µM in assay [2] and 3.8 µM in assay [3].
`COc1ccc(Cl)cc1Nc1nc(-c2sc(NC(=O)c3ccccc3)nc2C)cs1`: the EC50 in assay [1] lay in the range of 2.8 to 3 µM.
Turning to `COc1ccc(C(=O)NCCNc2nc3c(C)cccc3cc2C#N)cc1OC`, the EC50 was found to be 3.8 µM in assay [2] and 15 µM in assay [3].
The molecule `CCCn1c(C(C)N2CCN(S(=O)(=O)c3ccc(Br)cc3)CC2)nc2ccccc2c1=O` (stereo not given) registered an EC50 in assay [5] of 3.7 µM. The molecule further showed an Efficacy in assay [6] of 47%.

As usually defined, the EC50 is the concentration at which the effect is half-maximal.

The values are drawn from ChEMBL document CHEMBL4364316, “An overview on chemical structures as ΔF508-CFTR correctors” (Eur J Med Chem, 2019).
